In PubChem BioAssay AID248 (DTP/NCI, 2004):
Several values for one entry are separate records, joined by “and”; a condition that tells them apart may be missing. Equal entries are not always repeated. Inconclusive results and toxic doses are left out. Rule as the data show it: active = T/C of 150% or more; inactive = T/C below 125%.

Test system: L1210 leukemia ip in BDF1 mice, survival T/C
Assay: NCI In Vivo Anticancer Drug Screen. Data for tumor model L1210 Leukemia (intraperitoneal) in B6D2F1 (BDF1) mice
Conditions: endpoint: mean survival time, higher = longer survival
Summary of the method: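 Transplanted-tumor mice were given test agent; controls received vehicle only. Survival readings from the two groups were divided (treated over control).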

[1] = dose: 100.0 mg/kg/injection, schedule: Q04DX002 (ip), vehicle: Klucel (hydroxypropylcellulose) (HPC)
[2] = dose: 100.0 mg/kg/injection, schedule: Q01DX009 (ip), vehicle: Klucel (hydroxypropylcellulose) (HPC)
[3] = dose: 100.0 mg/kg/injection, schedule: Q04DX003 (ip), vehicle: Klucel (hydroxypropylcellulose) (HPC)
[4] = dose: 200.0 mg/kg/injection, schedule: Q01DX009 (ip), vehicle: Klucel (hydroxypropylcellulose) (HPC)
[5] = dose: 200.0 mg/kg/injection, schedule: Q04DX003 (ip), vehicle: Klucel (hydroxypropylcellulose) (HPC)
[6] = dose: 400.0 mg/kg/injection, schedule: Q01DX009 (ip), vehicle: Klucel (hydroxypropylcellulose) (HPC)
[7] = dose: 400.0 mg/kg/injection, schedule: Q04DX003 (ip), vehicle: Klucel (hydroxypropylcellulose) (HPC)
[8] = dose: 50.0 mg/kg/injection, schedule: Q04DX003 (ip), vehicle: saline with Tween-80
[9] = dose: 100.0 mg/kg/injection, schedule: Q04DX003 (ip), vehicle: saline with Tween-80
[10] = dose: 200.0 mg/kg/injection, schedule: Q04DX003 (ip), vehicle: saline with Tween-80
[11] = dose: 100.0 mg/kg/injection, schedule: Q04DX002 (ip), vehicle: saline with Tween-80
[12] = dose: 200.0 mg/kg/injection, schedule: Q04DX002 (ip), vehicle: saline with Tween-80
[13] = dose: 400.0 mg/kg/injection, schedule: Q04DX002 (ip), vehicle: saline with Tween-80
[14] = dose: 400.0 mg/kg/injection, schedule: Q04DX003 (ip), vehicle: saline with Tween-80

Measured: T/C

N#C/C(=C\c1cccn1Cc1ccc2c(c1)OCO2)C(N)=O
inactive: dose: 25.0 mg/kg/injection, schedule: Q04DX002 (ip), vehicle: Klucel (hydroxypropylcellulose) (HPC) 101 % of control | dose: 50.0 mg/kg/injection, schedule: Q04DX002 (ip), vehicle: Klucel (hydroxypropylcellulose) (HPC) 101 % of control | [1] 96 % of control

COc1ccc(OC(=O)Nc2ccccc2Cl)cc1
inactive: [2] 94 % of control | [3] 95 % of control | [4] 103 % of control | [5] 104 % of control | [6] 103 % of control | [7] 101 % of control

O=C(O)CCC(=O)Nc1cccc(C(F)(F)F)c1
inactive: [2] 103 % of control | [4] 105 % of control | [6] 100 % of control

Cn1c(C(N)=O)cc(=O)n1-c1ccc([N+](=O)[O-])cc1
inactive: [3] 101 % of control | [5] 97 % of control | [7] 101 % of control

CCCCCC(C)NC(=O)NCCCl (centres undefined)
inactive: [1] 89 % of control | dose: 200.0 mg/kg/injection, schedule: Q04DX002 (ip), vehicle: Klucel (hydroxypropylcellulose) (HPC) 92 % of control | dose: 400.0 mg/kg/injection, schedule: Q04DX002 (ip), vehicle: Klucel (hydroxypropylcellulose) (HPC) 87 % of control

NC(=O)c1cc(Br)ccc1O
inactive: dose: 50.0 mg/kg/injection, schedule: Q01DX009 (ip), vehicle: Klucel (hydroxypropylcellulose) (HPC) 89 % of control | [2] 92 % of control | [4] 95 % of control

Cc1cc2c(cc1C)C(O)C(N1CCN(C)CC1)CCC2 (centres undefined)
inactive: [8] 103 % of control | [9] 97 % of control | [10] 92 % of control

NC(CSSCC(N)=NCCCCCSC12CC3CC(CC(C3)C1)C2)=NCCCCCSC12CC3CC(CC(C3)C1)C2
inactive: dose: 2.5 mg/kg/injection, schedule: Q04DX002 (ip), vehicle: Klucel (hydroxypropylcellulose) (HPC) 100 % of control | dose: 5.0 mg/kg/injection, schedule: Q04DX002 (ip), vehicle: Klucel (hydroxypropylcellulose) (HPC) 100 % of control | dose: 10.0 mg/kg/injection, schedule: Q04DX002 (ip), vehicle: Klucel (hydroxypropylcellulose) (HPC) 100 % of control and 90 % of control

OC/C=[CH]\[Sn]([c]1ccccc1)([c]1ccccc1)[c]1ccccc1
inactive: [11] 95 % of control | [12] 119 % of control | [13] 119 % of control

CCN(CC)c1ccc(SSc2ccc(N(CC)CC)cc2)cc1
inactive: dose: 25.0 mg/kg/injection, schedule: Q01DX001 (ip), vehicle: saline 105 % of control | dose: 50.0 mg/kg/injection, schedule: Q01DX001 (ip), vehicle: saline 100 % of control | dose: 100.0 mg/kg/injection, schedule: Q01DX001 (ip), vehicle: saline 100 % of control

O=C(CC(O)(C(F)(F)F)C(F)(F)F)c1ccc(-c2ccccc2)cc1
inactive: dose: 50.0 mg/kg/injection, schedule: Q01DX009 (ip), vehicle: saline with Tween-80 96 % of control | [8] 101 % of control | dose: 100.0 mg/kg/injection, schedule: Q01DX009 (ip), vehicle: saline with Tween-80 98 % of control | [9] 104 % of control | dose: 200.0 mg/kg/injection, schedule: Q01DX009 (ip), vehicle: saline with Tween-80 100 % of control | [10] 97 % of control | dose: 400.0 mg/kg/injection, schedule: Q01DX009 (ip), vehicle: saline with Tween-80 101 % of control | [14] 93 % of control

CC1=C(C)C2(C)C1(C)C1(C)NN=NC12c1ccccc1 (centres undefined)
inactive: [9] 95 % of control | [10] 91 % of control | [14] 101 % of control

CN(C)N=Nc1ccc(C(=O)N/N=C/c2ccc([N+](=O)[O-])cc2)cc1
inactive: [11] 100 % of control | [12] 94 % of control | [13] 99 % of control

N#CCCC(CCC#N)c1cccc(C(CCC#N)CCC#N)n1
inactive: dose: 12.5 mg/kg/injection, schedule: Q04DX003 (ip), vehicle: Klucel (hydroxypropylcellulose) (HPC) 96 % of control | dose: 25.0 mg/kg/injection, schedule: Q04DX003 (ip), vehicle: Klucel (hydroxypropylcellulose) (HPC) 95 % of control | dose: 50.0 mg/kg/injection, schedule: Q04DX003 (ip), vehicle: Klucel (hydroxypropylcellulose) (HPC) 90 % of control | [3] 96 % of control

COc1ccc(N=NS(=O)O)cc1
inactive: dose: 100.0 mg/kg/injection, schedule: Q01DX001 (ip), vehicle: Klucel (hydroxypropylcellulose) (HPC) 98 % of control | dose: 200.0 mg/kg/injection, schedule: Q01DX001 (ip), vehicle: Klucel (hydroxypropylcellulose) (HPC) 97 % of control | dose: 400.0 mg/kg/injection, schedule: Q01DX001 (ip), vehicle: Klucel (hydroxypropylcellulose) (HPC) 95 % of control
